Here are results for eleven molecules from article PMC6540907, “The nuclear export inhibitor aminoratjadone is a potent effector in extracellular-targeted drug conjugates” (Chemical Science, 2019).

Where two headings read alike, the source gives them in different places. No end group written: not given here.

One data set relates to A-549. Briefly: cells. Format: cell-based, human. The following applies: Homo sapiens. The protocol:
(§1) Biological evaluation of the compounds […]
(§2) serial dilutions of the test compound were given to 120 µL of suspended cells (50.000/mL) in wells of 96-well plates. After 5 days of incubation growth inhibition (IC50) was determined using an MTT assay.9
(§3) Table S1:Medium conditions for different cell types.
(§4) Cell type Medium Additives
(§5) L-929 (DSMZ ACC 2) DME medium (high glucose) (Gibco) 10% fetal calf serum (Gibco) SKOV-3 DSMZ ATCC HTB Mc Coys-Medium (Gibco) 10% fetal calf serum (Gibco) […]
(§6) A549 (DSMZ ACC 107) DME medium (high glucose) (Gibco) 10% fetal calf serum (Gibco)

The test system of data set [1] is KB-3.1. Description: cells. The class given is cell-based, human. The protocol:
as §1, §2, §3, §4, §5, §6

A further data set concerns MCF-7. Description: cells. The note with it: Homo sapiens. The class given is cell-based, human. The protocol:
as §1, §2, §3, §4, §5, §6

The subject of the next data set is SK-OV-3. Description: cells. The note with it: Homo sapiens. The class given is cell-based, human. The protocol: as §1, §2, §3, §4, §5, §6
Data set [2] deals with L-929. Description: Cell proliferation assay (MTT, 5 days). Format: cell-based, murine. The protocol:
as §1, §2, §3, §4, §5
A549 (DSMZ ACC 107) DME medium (high glucose) (Gibco) 10% fetal calf serum (Gibco) KB 3.1 (DSMZ ACC 158) DME medium (high glucose) (Gibco) 10% fetal calf serum (Gibco) Ratjadone Compound Antiproliferative activity IC50 [nM]
KB-3.1: human cervix carcinoma, KB-V1: multi-drug-resistant human cervix carcinoma, K-562: human chronic myelogenous leukemia cell, PC-3: human prostate carcinoma, L-929: murine fibroblast
Figure S8: Structures of Ratjadone A-D and their antiproliferative activity (IC50 values in nM). Data published by Köster et al.10

For data set [3], the system named is KB-3.1. Set-up: method as in Köster et al.10. The following applies: KB-3.1 human cervix carcinoma; ref Köster et al.10; read-out: Antiproliferative activity IC50; cited from earlier work.
A further data set deals with KB-V1. Set-up: method as in Köster et al.10. The note with it: KB-V1 multi-drug-resistant human cervix carcinoma; ref Köster et al.10; read-out: Antiproliferative activity IC50; cited from earlier work.
The next data set relates to K-562. Set-up: method as in Köster et al.10. The following applies: K-562 human chronic myelogenous leukemia; ref Köster et al.10; read-out: Antiproliferative activity IC50; cited from earlier work.
In the next data set the test system is PC-3. Set-up: method as in Köster et al.10. The following applies: PC-3 human prostate carcinoma; ref Köster et al.10; read-out: Antiproliferative activity IC50; cited from earlier work.
Data set [4] relates to L-929. Details: method as in Köster et al.10. The note with it: L-929 murine fibroblast; ref Köster et al.10; read-out: Antiproliferative activity IC50; cited from earlier work.
A further data set addresses CRM1 (Homo sapiens, UniProt O14980). Description: Nuclear export inhibition, fluorescent translocation biosensor in recombinant HeLa cells. Details: This cellular assay uses HeLa cells that express a recombinant fusion protein; endogenous in cells; host or cells: HeLa cells stably expressing the NLS-GST-GFP-RevNES translocation biosensor (HeLaRevBio). The class given is cell-based. The note with it: 1 h incubation.

The subject of data set [5] is panel of cancer cell lines. Description: Antiproliferative activity of drug-free LHRH carriers in a panel of cancer cell lines. The note with it: KB-3.1, A-549, SK-OV-3, MCF-7. Format: cell-based, human. The source says:
Luteinizing hormone releasing hormone (LHRH)-based carriers were selected for this purpose, because it has been shown that several cancer cell types overexpress receptors for LHRH, a peptide-hormone involved in regulation of the sex glands of males and females.[25],[26],[29],[82]–[84] We synthesized three novel derivatives of LHRH that bear azido-ornithine as […] amino acid of the decapeptide core structure instead of the glycine residue found in the natural peptide (Fig. 8). As the importance of the newly introduced stereocenter was unclear, both diastereoisomers L-Orn-N3-LHRH and D-Orn-N3-LHRH were prepared. An additional analog, D-Orn-N3-Gose, was based on the synthetic LHRH analogue goserelin, that was reported to have higher affinity for the LHRH-receptor[85] due to a hydrazine carboxamide in the C-terminal position. […] Next, their antiproliferative activities were evaluated in a panel of cancer cell lines, in order to assess a contribution of the drug-free targeting moiety to bioactivity. […] The conjugates were evaluated for their antiproliferative activity against the LHRH-receptor-positive lung cancer cell line A-549 (Table 3). […]
serial dilutions of the test compound were given to 120 µL of suspended cells (50.000/mL) in wells of 96-well plates. After 5 days of incubation growth inhibition (IC50) was determined using an MTT assay.9 […]

The nature of data set [6]: Plasma stability assay (HPLC-MS/MS). Format: in vitro ADME. The following applies: 37 °C, pH 7.4, two hours, 250 µM. The protocol:
We exposed three selected conjugates, FA-7-Val-Cit-PABA-16R-aminoratjadone, FA-SS-16R-aminoratjadone and FA-3b-16R-aminoratjadone, to human plasma and quantified their relative amount at different time points by HPLC-MS/MS analysis (Fig. 9).
FA-7-Val-Cit-pABA-16R-Aminoratjadone (PK008a), FA-SS-16R-Aminoratjadone (PK026a) and FA-3b-L-Aminoratjadone (PK058a) were dissolved in DMSO were added to human plasma (pH 7.4, 37°C) to yield a final concentration of 10 µg/ml. In addition, procaine, propoxycaine and procainamide (dissolved in DMSO) were added to human plasma (pH 7.4, 37°C) to yield a final concentration of 250 µM. Procaine and propoxycaine served as positive controls as they are known to be unstable in mouse plasma. Procainamide served as negative control as it is known to be stable in mouse plasma. The samples were incubated for 0 min, 30 min, 60 min, 90 min and 120 min at 37°C. At each time point 10 µl of the respective sample was extracted with 50 µl acetonitrile containing an internal standard for 15 min on ice. […] All samples were analyzed via HPLC-MS using an Agilent 1290 Inifinity II HPLC system coupled to an AB Sciex QTrap 6500plus mass spectrometer. […]
MRM. All compo unds were detected in positive scan mode. Peak areas of each compound and of the internal standard were analyzed using MultiQuant 3.0 software (AB Sciex). Peaks were quantified using […]

On the set-up of data set [7]: method as in ref 86 = [86]; Hartmann D. A. Curr. Protoc. Pharmacol. 2002 19 7.6.1 7.6.8. The note with it: cited from earlier work.
Setting [8] is: A549, read-out: Antiproliferative activity IC50, A-549 human lung carcinoma.
Where [9] appears, read: Homo sapiens, KB 3-1, read-out: Antiproliferative activity IC50, KB-3.1 human cervix carcinoma.
Where [10] appears, read: MCF7, read-out: Antiproliferative activity IC50, MCF-7 human breast carcinoma.
[11] abbreviates: SK-OV-3, read-out: Antiproliferative activity IC50.
Setting [12] is: Mus musculus, L929, read-out: Antiproliferative activity IC50, L-929 murine fibroblast.
Where [13] appears, read: nuclear export inhibition IC50, HeLa cells expressing translocation biosensor.

CRM1, sequence (O14980 whole entry, the tested form may be a part): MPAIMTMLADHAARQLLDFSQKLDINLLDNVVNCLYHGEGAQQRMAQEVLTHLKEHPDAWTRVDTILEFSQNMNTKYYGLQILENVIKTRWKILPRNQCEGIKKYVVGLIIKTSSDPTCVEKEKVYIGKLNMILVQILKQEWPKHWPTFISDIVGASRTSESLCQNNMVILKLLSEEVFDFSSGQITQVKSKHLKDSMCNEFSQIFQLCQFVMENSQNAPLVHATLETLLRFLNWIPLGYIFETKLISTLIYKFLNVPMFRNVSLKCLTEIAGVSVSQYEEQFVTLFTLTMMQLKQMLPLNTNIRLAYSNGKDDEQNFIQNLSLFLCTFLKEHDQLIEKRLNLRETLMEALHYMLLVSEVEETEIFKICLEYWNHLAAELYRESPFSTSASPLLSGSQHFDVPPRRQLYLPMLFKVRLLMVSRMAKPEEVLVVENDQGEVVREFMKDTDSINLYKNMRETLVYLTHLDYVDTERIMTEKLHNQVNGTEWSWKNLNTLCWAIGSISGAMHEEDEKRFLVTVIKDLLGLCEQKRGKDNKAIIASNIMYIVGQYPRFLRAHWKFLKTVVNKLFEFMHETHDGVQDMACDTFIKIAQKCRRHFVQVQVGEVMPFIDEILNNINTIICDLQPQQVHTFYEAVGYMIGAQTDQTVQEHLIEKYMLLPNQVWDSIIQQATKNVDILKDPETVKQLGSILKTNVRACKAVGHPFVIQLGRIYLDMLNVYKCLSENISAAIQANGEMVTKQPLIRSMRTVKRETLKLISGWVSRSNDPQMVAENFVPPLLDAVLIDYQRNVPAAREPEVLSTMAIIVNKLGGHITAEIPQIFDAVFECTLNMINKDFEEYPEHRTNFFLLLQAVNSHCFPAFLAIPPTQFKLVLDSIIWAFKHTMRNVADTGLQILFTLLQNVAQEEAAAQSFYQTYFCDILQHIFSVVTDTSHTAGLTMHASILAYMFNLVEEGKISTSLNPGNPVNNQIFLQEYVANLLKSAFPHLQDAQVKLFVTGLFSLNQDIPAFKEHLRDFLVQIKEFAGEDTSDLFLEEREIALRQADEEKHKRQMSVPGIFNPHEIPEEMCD

As to `CC=CC1OC(C(O)C=CC=C(C)CC(C)C=C(C)C=CC2CC=CC(=O)O2)CC(O)C1C` (single isomer, unassigned; (+)) [Compound 1, (+)-ratjadone A, reference compound], the IC50 – broadly, the concentration at which inhibition is half-maximal – in the data set with A-549 (A549, A-549 human lung carcinoma, read-out: Antiproliferative activity IC50) was 0.15 nM; with KB-3.1 [1] (KB 3-1, KB-3.1 human cervix carcinoma, read-out: Antiproliferative activity IC50), 0.46 nM; in the data set on MCF-7 (MCF7, MCF-7 human breast carcinoma, read-out: Antiproliferative activity IC50), 0.11 nM; with SK-OV-3 (SK-OV-3, SK-OV-3 human ovarian carcinoma, read-out: Antiproliferative activity IC50), 0.24 nM; in the data set on L-929 [2] (Mus musculus, L929, L-929 murine fibroblast, read-out: Antiproliferative activity IC50), 0.68 nM; with KB-3.1 [3] it was 0.3 nM. Moreover, the half-maximal inhibitory concentration (IC50) in the data set on KB-V1 was 0.15 nM; in the data set with K-562, 0.3 nM; in the data set with PC-3 it was 0.08 nM; in the data set on L-929 [4] it was 0.15 nM; on CRM1 (HeLa cells expressing translocation biosensor, read-out: nuclear export inhibition IC50), 1.2 nM.

As for `C/C=C/[C@@H]1O[C@H]([C@@H](O)/C=C/C=C/C[C@@H](C)/C=C(C)\C=C\[C@H]2CC=CC(=O)O2)C[C@@H](O)[C@@H]1C` [Compound 2, Ratjadone B], the IC50 with KB-3.1 [3] was 1 nM; with KB-V1 it was 0.15 nM; in the data set with K-562, 0.5 nM; in the data set on PC-3 it was 0.15 nM; in the data set on L-929 [4], 0.35 nM.

For `C/C=C/[C@@H]1O[C@H]([C@@H](O)/C=C/C=C/C[C@@H](C)/C=C(\C=C\[C@H]2CC=CC(=O)O2)CC)C[C@@H](O)[C@@H]1C` [Compound 3, Ratjadone C], the IC50 in the data set with KB-3.1 [3] is 0.35 nM; with KB-V1 it was 0.08 nM; with K-562, 0.15 nM; in the data set with PC-3, 0.08 nM; in the data set on L-929 [4], 0.2 nM.

Consider `C/C=C/[C@@H]1O[C@H](C/C=C/C=C/C[C@@H](C)/C=C(\C=C\[C@H]2CC=CC(=O)O2)CC)C[C@@H](O)[C@@H]1C` [Compound 4, Ratjadone D], for which the IC50 in the data set with KB-3.1 [3] was 2 nM; in the data set with KB-V1, 0.3 nM; in the data set with K-562, 0.5 nM; in the data set on PC-3, 0.4 nM; in the data set on L-929 [4], 1 nM.

Consider `C/C=C/[C@@H]1O[C@H]([C@H](N)/C=C/C=C(\C)C[C@@H](C)/C=C(C)\C=C\[C@H]2CC=CC(=O)O2)C[C@@H](O)[C@@H]1C` [Compound 16, 16R-aminoratjadone], for which the IC50 in the data set with A-549 (setting [8]) is 0.31 nM; in the data set with KB-3.1 [1] (setting [9]), 0.39 nM; in the data set on MCF-7 (setting [10]), 0.26 nM; in the data set on SK-OV-3 (setting [11]), 0.61 nM; in the data set with L-929 [2] (setting [12]), 4.61 nM; on CRM1 (setting [13]), 2.7 nM.

For `C/C=C/[C@@H]1O[C@H]([C@@H](N)/C=C/C=C(\C)C[C@@H](C)/C=C(C)\C=C\[C@H]2CC=CC(=O)O2)C[C@@H](O)[C@@H]1C` [Compound 17, 16S-aminoratjadone], the IC50 was 1.31 nM in the data set on A-549 (setting [8]); 1.59 nM in the data set with KB-3.1 [1] (setting [9]); 0.36 nM in the data set on MCF-7 (setting [10]); 0.81 nM with SK-OV-3 (setting [11]); 28.4 nM in the data set with L-929 [2] (setting [12]); 28.4 nM with L-929 [2] (read-out: Antiproliferative activity IC50, L-929 murine fibroblast). Also, the IC50 on CRM1 (setting [13]) came out at 2.8 nM.

For the molecule `C#CCCOC(=O)N[C@H](/C=C/C=C(\C)C[C@@H](C)/C=C(C)\C=C\[C@H]1CC=CC(=O)O1)[C@@H]1C[C@@H](O)[C@H](C)[C@H](/C=C/C)O1` [Compound 21], the IC50 in the data set on A-549 (setting [8]) was 1.25 nM; in the data set on KB-3.1 [1] (setting [9]), 0.47 nM; in the data set with MCF-7 (setting [10]), 0.27 nM; with SK-OV-3 (setting [11]), 0.45 nM; with L-929 [2] (setting [12]), 4.5 nM; on CRM1 (setting [13]), 46.1 nM.

For `CC(C)C[C@H](NC(=O)[C@H](CCCN=[N+]=[N-])NC(=O)[C@H](Cc1ccc(O)cc1)NC(=O)[C@H](CO)NC(=O)[C@H](Cc1c[nH]c2ccccc12)NC(=O)[C@H](Cc1c[nH]cn1)NC(=O)[C@@H]1CCC(=O)N1)C(=O)N[C@@H](CCCNC(=N)N)C(=O)N1CCC[C@H]1C(=O)NCC(N)=O` [L-Orn-N3-LHRH], the “antiproliferative activity of the drug-free targeting moiety” value in [5] was “no antiproliferative activity”.

Regarding `CCN(CC)CCOC(=O)c1ccc(N)cc1` [procain], the “degraded in human plasma” value in [6] was “more than 90%”. The “stability in plasma (known)” value in data set [7] is “degrade rapidly in plasma”.

`CCCOc1cc(N)ccc1C(=O)OCCN(CC)CC` [propoxycain]: the “degraded in human plasma” value in [6] is reported as “more than 90%”. Besides, the “stability in plasma (known)” value in data set [7] is “degrade rapidly in plasma”.

For “LHRH: luteinizing hormone releasing hormone, peptide hormone (QHWSYGLRPG-NH2; not fully specified (residue 1); ends and bridges not checked; UniProt P01148 24-33, looked up) [reference compound]”, the “antiproliferative activity of the drug-free targeting moiety” value in data set [5] is on record as “no antiproliferative activity”.
